Measurements as given in paper PMC6409085, “Three odorant-binding proteins are involved in the behavioral response of Sogatella furcifera to rice plant volatiles” (PeerJ, 2019).
“And” between values parts separate entries of the source, which are not always exact repeats. Identical values can stand only once.

Key:
SfurOBP11 = SfurOBP11 (Sogatella furcifera, UniProt V5T6E3); test: biochemical; assay type: binding
Method in brief: (§1)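 In 50 mM Tris-HCl pH 7.4, odorants displace 1-NPN (2.0 µM) from 2.0 µM protein. Emission at 390–490 nm under 337 nm excitation is measured 2 min after competitor addition, in triplicate. Ki is obtained from IC50 and the 1-NPN dissociation constant.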

SfurOBP1 = SfurOBP1 (Sogatella furcifera, UniProt V5T8N5); test: biochemical; assay type: binding; conditions: for Fluorescence competitive binding assay, fluorescence intensity: OBP1, three replicate columns
Method in brief: as §1

SfurOBP2 = SfurOBP2 (Sogatella furcifera, UniProt V5T759); test: biochemical; assay type: binding
Method in brief: as §1

SfurOBP3 = SfurOBP3 (Sogatella furcifera, UniProt V5T818); test: biochemical; assay type: binding; conditions: for Fluorescence competitive binding assay, fluorescence intensity: OBP3, three replicate columns
Method in brief: as §1

S. furcifera adults = test: Y-tube olfactometer behavioral trials; assay type: in vivo, Sogatella furcifera; conditions: odorant 50 µL/L vs hexane; adults
Method in brief: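 Single S. furcifera adults (2 days post-emergence, starved 0.5 h) chose between odorant (100 µL of 50 µL/L on filter paper) and hexane control in a glass Y-tube, charcoal-filtered humidified air 300 mL/min per arm, 25 ± 1 °C, 50% RH. Choice scored if insect passed half an arm and stayed >1 min within 10 min; 45 insects per compound, chi-squared test.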

Sequence of SfurOBP3 (V5T818 entry or part of it): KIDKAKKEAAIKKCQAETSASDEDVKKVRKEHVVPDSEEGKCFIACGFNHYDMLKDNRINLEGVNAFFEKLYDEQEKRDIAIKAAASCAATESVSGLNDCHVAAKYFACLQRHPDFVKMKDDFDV
Sequence of SfurOBP1 (V5T8N5 entry or part of it): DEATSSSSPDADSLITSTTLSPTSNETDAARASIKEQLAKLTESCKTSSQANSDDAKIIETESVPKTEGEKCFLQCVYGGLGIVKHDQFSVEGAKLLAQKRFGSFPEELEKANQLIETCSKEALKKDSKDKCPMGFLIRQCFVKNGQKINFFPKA
Sequence of SfurOBP2 (V5T759 entry or part of it): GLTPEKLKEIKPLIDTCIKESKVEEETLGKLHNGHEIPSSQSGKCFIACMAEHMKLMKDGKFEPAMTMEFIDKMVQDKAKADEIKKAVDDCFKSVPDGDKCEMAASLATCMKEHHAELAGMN
Sequence of SfurOBP11 (V5T6E3 entry or part of it): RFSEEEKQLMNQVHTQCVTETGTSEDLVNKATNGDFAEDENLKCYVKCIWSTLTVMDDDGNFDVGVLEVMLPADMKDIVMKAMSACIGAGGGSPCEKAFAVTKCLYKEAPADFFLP

Q: What does the source list for 2-heptanonol?
A: IC50 (SfurOBP11; SfurOBP11, protein and 1-NPN both 2.0 µM, competitor 2-20 µM, read-out: IC50): > 20 µM; Fluorescence intensity, fluorescence competitive binding assay, OBP11 (SfurOBP11; ligand concentration 2, replicate 1): 32214; Fluorescence intensity, fluorescence competitive binding assay, OBP11 (SfurOBP11; ligand concentration 2, replicate 2): 33277; Fluorescence intensity, fluorescence competitive binding assay, OBP11 (SfurOBP11; ligand concentration 2, replicate 3): 35354; Fluorescence intensity, fluorescence competitive binding assay, OBP11 (SfurOBP11; ligand concentration 4, replicate 1): 33125; Fluorescence intensity, fluorescence competitive binding assay, OBP11 (SfurOBP11; ligand concentration 4, replicate 2): 35054; Fluorescence intensity, fluorescence competitive binding assay, OBP11 (SfurOBP11; ligand concentration 4, replicate 3): 33696; Fluorescence intensity, fluorescence competitive binding assay, OBP11 (SfurOBP11; ligand concentration 6, replicate 1): 31772; Fluorescence intensity, fluorescence competitive binding assay, OBP11 (SfurOBP11; ligand concentration 6, replicate 2): 31091; Fluorescence intensity, fluorescence competitive binding assay, OBP11 (SfurOBP11; ligand concentration 6, replicate 3): 33532; Fluorescence intensity, fluorescence competitive binding assay, OBP11 (SfurOBP11; ligand concentration 8, replicate 1): 28812; Fluorescence intensity, fluorescence competitive binding assay, OBP11 (SfurOBP11; ligand concentration 8, replicate 2): 31104; Fluorescence intensity, fluorescence competitive binding assay, OBP11 (SfurOBP11; ligand concentration 8, replicate 3): 31825; Fluorescence intensity, fluorescence competitive binding assay, OBP11 (SfurOBP11; ligand concentration 10, replicate 1): 28521; Fluorescence intensity, fluorescence competitive binding assay, OBP11 (SfurOBP11; ligand concentration 10, replicate 2): 30054; Fluorescence intensity, fluorescence competitive binding assay, OBP11 (SfurOBP11; ligand concentration 10, replicate 3): 29747; Fluorescence intensity, fluorescence competitive binding assay, OBP11 (SfurOBP11; ligand concentration 12, replicate 1): 26176; Fluorescence intensity, fluorescence competitive binding assay, OBP11 (SfurOBP11; ligand concentration 12, replicate 2): 26507; Fluorescence intensity, fluorescence competitive binding assay, OBP11 (SfurOBP11; ligand concentration 12, replicate 3): 26325; Fluorescence intensity, fluorescence competitive binding assay, OBP11 (SfurOBP11; ligand concentration 14, replicate 1): 24809; Fluorescence intensity, fluorescence competitive binding assay, OBP11 (SfurOBP11; ligand concentration 14, replicate 2): 27546; Fluorescence intensity, fluorescence competitive binding assay, OBP11 (SfurOBP11; ligand concentration 14, replicate 3): 28489; Fluorescence intensity, fluorescence competitive binding assay, OBP11 (SfurOBP11; ligand concentration 16, replicate 1): 22169; Fluorescence intensity, fluorescence competitive binding assay, OBP11 (SfurOBP11; ligand concentration 16, replicate 2): 21457; Fluorescence intensity, fluorescence competitive binding assay, OBP11 (SfurOBP11; ligand concentration 16, replicate 3): 24839; Fluorescence intensity, fluorescence competitive binding assay, OBP11 (SfurOBP11; ligand concentration 18, replicate 1): 29523; Fluorescence intensity, fluorescence competitive binding assay, OBP11 (SfurOBP11; ligand concentration 18, replicate 2): 28673; Fluorescence intensity, fluorescence competitive binding assay, OBP11 (SfurOBP11; ligand concentration 18, replicate 3): 27420; Fluorescence intensity, fluorescence competitive binding assay, OBP11 (SfurOBP11; ligand concentration 20, replicate 1): 25385; Fluorescence intensity, fluorescence competitive binding assay, OBP11 (SfurOBP11; ligand concentration 20, replicate 2): 25884; Fluorescence intensity, fluorescence competitive binding assay, OBP11 (SfurOBP11; ligand concentration 20, replicate 3): 25605; Fluorescence competitive binding assay, fluorescence intensity (SfurOBP1; ligand concentration 2 (μM)): 5887 and 5646 and 5767; Fluorescence competitive binding assay, fluorescence intensity (SfurOBP1; ligand concentration 4 (μM)): 7288 and 7577 and 6996; Fluorescence competitive binding assay, fluorescence intensity (SfurOBP1; ligand concentration 6 (μM)): 5995 and 5950 and 6027; Fluorescence competitive binding assay, fluorescence intensity (SfurOBP1; ligand concentration 8 (μM)): 7072 and 6140 and 5704; Fluorescence competitive binding assay, fluorescence intensity (SfurOBP1; ligand concentration 10 (μM)): 8690 and 6215 and 5653; Fluorescence competitive binding assay, fluorescence intensity (SfurOBP1; ligand concentration 12 (μM)): 7048 and 7677 and 6537; Fluorescence competitive binding assay, fluorescence intensity (SfurOBP1; ligand concentration 14 (μM)): 6232 and 8602 and 7115; Fluorescence competitive binding assay, fluorescence intensity (SfurOBP1; ligand concentration 16 (μM)): 5533 and 5298 and 5778; Fluorescence competitive binding assay, fluorescence intensity (SfurOBP1; ligand concentration 18 (μM)): 5895 and 6061 and 6136; Fluorescence competitive binding assay, fluorescence intensity (SfurOBP1; ligand concentration 20 (μM)): 5784 and 5580 and 5212; IC50 (SfurOBP1; SfurOBP1, protein and 1-NPN both 2.0 µM, competitor 2-20 µM, read-out: IC50): > 20 µM; IC50 (SfurOBP2; SfurOBP2, protein and 1-NPN both 2.0 µM, competitor 2-20 µM, read-out: IC50): > 20 µM; Fluorescence competitive binding assay, OBP2 (raw fluorescence reading) (SfurOBP2; ligand concentration 2 (unit not given), replicate column 1 of 3): 18612; Fluorescence competitive binding assay, OBP2 (raw fluorescence reading) (SfurOBP2; ligand concentration 2 (unit not given), replicate column 2 of 3): 18747; Fluorescence competitive binding assay, OBP2 (raw fluorescence reading) (SfurOBP2; ligand concentration 2 (unit not given), replicate column 3 of 3): 19681; Fluorescence competitive binding assay, OBP2 (raw fluorescence reading) (SfurOBP2; ligand concentration 4 (unit not given), replicate column 1 of 3): 19302; Fluorescence competitive binding assay, OBP2 (raw fluorescence reading) (SfurOBP2; ligand concentration 4 (unit not given), replicate column 2 of 3): 19993; Fluorescence competitive binding assay, OBP2 (raw fluorescence reading) (SfurOBP2; ligand concentration 4 (unit not given), replicate column 3 of 3): 20683; Fluorescence competitive binding assay, OBP2 (raw fluorescence reading) (SfurOBP2; ligand concentration 6 (unit not given), replicate column 1 of 3): 18811; Fluorescence competitive binding assay, OBP2 (raw fluorescence reading) (SfurOBP2; ligand concentration 6 (unit not given), replicate column 2 of 3): 18736; Fluorescence competitive binding assay, OBP2 (raw fluorescence reading) (SfurOBP2; ligand concentration 6 (unit not given), replicate column 3 of 3): 18774; Fluorescence competitive binding assay, OBP2 (raw fluorescence reading) (SfurOBP2; ligand concentration 8 (unit not given), replicate column 1 of 3): 16468; Fluorescence competitive binding assay, OBP2 (raw fluorescence reading) (SfurOBP2; ligand concentration 8 (unit not given), replicate column 2 of 3): 16720; Fluorescence competitive binding assay, OBP2 (raw fluorescence reading) (SfurOBP2; ligand concentration 8 (unit not given), replicate column 3 of 3): 16981; Fluorescence competitive binding assay, OBP2 (raw fluorescence reading) (SfurOBP2; ligand concentration 10 (unit not given), replicate column 1 of 3): 16986; Fluorescence competitive binding assay, OBP2 (raw fluorescence reading) (SfurOBP2; ligand concentration 10 (unit not given), replicate column 2 of 3): 17111; Fluorescence competitive binding assay, OBP2 (raw fluorescence reading) (SfurOBP2; ligand concentration 10 (unit not given), replicate column 3 of 3): 16240; Fluorescence competitive binding assay, OBP2 (raw fluorescence reading) (SfurOBP2; ligand concentration 12 (unit not given), replicate column 1 of 3): 16820; Fluorescence competitive binding assay, OBP2 (raw fluorescence reading) (SfurOBP2; ligand concentration 12 (unit not given), replicate column 2 of 3): 17596; Fluorescence competitive binding assay, OBP2 (raw fluorescence reading) (SfurOBP2; ligand concentration 12 (unit not given), replicate column 3 of 3): 18083; Fluorescence competitive binding assay, OBP2 (raw fluorescence reading) (SfurOBP2; ligand concentration 14 (unit not given), replicate column 1 of 3): 17387; Fluorescence competitive binding assay, OBP2 (raw fluorescence reading) (SfurOBP2; ligand concentration 14 (unit not given), replicate column 2 of 3): 16676; Fluorescence competitive binding assay, OBP2 (raw fluorescence reading) (SfurOBP2; ligand concentration 14 (unit not given), replicate column 3 of 3): 18097; Fluorescence competitive binding assay, OBP2 (raw fluorescence reading) (SfurOBP2; ligand concentration 16 (unit not given), replicate column 1 of 3): 16472; Fluorescence competitive binding assay, OBP2 (raw fluorescence reading) (SfurOBP2; ligand concentration 16 (unit not given), replicate column 2 of 3): 16454; Fluorescence competitive binding assay, OBP2 (raw fluorescence reading) (SfurOBP2; ligand concentration 16 (unit not given), replicate column 3 of 3): 17500; Fluorescence competitive binding assay, OBP2 (raw fluorescence reading) (SfurOBP2; ligand concentration 18 (unit not given), replicate column 1 of 3): 16574; Fluorescence competitive binding assay, OBP2 (raw fluorescence reading) (SfurOBP2; ligand concentration 18 (unit not given), replicate column 2 of 3): 16302; Fluorescence competitive binding assay, OBP2 (raw fluorescence reading) (SfurOBP2; ligand concentration 18 (unit not given), replicate column 3 of 3): 16787; Fluorescence competitive binding assay, OBP2 (raw fluorescence reading) (SfurOBP2; ligand concentration 20 (unit not given), replicate column 1 of 3): 15630; Fluorescence competitive binding assay, OBP2 (raw fluorescence reading) (SfurOBP2; ligand concentration 20 (unit not given), replicate column 2 of 3): 15665; Fluorescence competitive binding assay, OBP2 (raw fluorescence reading) (SfurOBP2; ligand concentration 20 (unit not given), replicate column 3 of 3): 15648; Fluorescence competitive binding assay, fluorescence intensity (SfurOBP3; ligand concentration 2): 45232 and 45869 and 44594; Fluorescence competitive binding assay, fluorescence intensity (SfurOBP3; ligand concentration 4): 45996 and 44453 and 43020; Fluorescence competitive binding assay, fluorescence intensity (SfurOBP3; ligand concentration 6): 47391 and 47743 and 47567; Fluorescence competitive binding assay, fluorescence intensity (SfurOBP3; ligand concentration 8): 48801 and 50407 and 49604; Fluorescence competitive binding assay, fluorescence intensity (SfurOBP3; ligand concentration 10): 51610 and 62768 and 47878; Fluorescence competitive binding assay, fluorescence intensity (SfurOBP3; ligand concentration 12): 54498 and 52011 and 51877; Fluorescence competitive binding assay, fluorescence intensity (SfurOBP3; ligand concentration 14): 42842 (2×) and 42142; Fluorescence competitive binding assay, fluorescence intensity (SfurOBP3; ligand concentration 16): 41166 and 44357 and 42754; Fluorescence competitive binding assay, fluorescence intensity (SfurOBP3; ligand concentration 18): 42621 and 43724 and 41536; Fluorescence competitive binding assay, fluorescence intensity (SfurOBP3; ligand concentration 20): 45786 and 37456 and 39383; IC50 (SfurOBP3; SfurOBP3, protein and 1-NPN both 2.0 µM, competitor 2-20 µM, read-out: IC50): > 20 µM; number of insects choosing hexane arm (S. furcifera adults): 13; number of insects choosing volatilies arm (S. furcifera adults): 16; number of insects failed (no choice) (S. furcifera adults): 13
